Our source for the TGI and GI50 values is PubChem BioAssay (NCI).

SMILES strings stand for the structures.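 Dose response: 5 concentrations. Exposure: 48 h. Format: 96-well plates. Endpoint: linear interpolation; highest concentration if not reached. GI50 marks 50% less growth. TGI: total growth inhibition.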

Among the test systems are MDA-MB-231 breast; UACC-257 melanoma; M14 melanoma; PC-3 prostate; TK-10 renal; MDA-N; MDA-MB-435; HS 578T breast; SR leukemia; MCF7 breast.
Assay in all cases: NCI tumour cell line growth inhibition, 48 h

For the compound `C=C(C)[C@@H]1CC[C@]2(C)CC[C@]3(C)[C@H](CC[C@@H]4[C@@]5(C)CC[C@H](OC(=O)c6ccccc6)C(C)(C)[C@@H]5CC[C@]43C)[C@@H]12`, the TGI in the assay on MDA-MB-231 breast, in the assay with UACC-257 melanoma, with M14 melanoma, in the assay with PC-3 prostate, with TK-10 renal and in the assay on MDA-N was more than 100 µM in each case. Moreover, the TGI with MDA-MB-435, in the assay with HS 578T breast, with SR leukemia and in the assay with MCF7 breast was more than 100 µM throughout.

In the case of `O=C(N/C(=C\c1ccccc1[N+](=O)[O-])c1nc2ccccc2[nH]1)c1ccccc1`, the TGI in the assay on M14 melanoma, in the assay with TK-10 renal and in the assay on SR leukemia was more than 100 µM in each case.

Take `CN(C)CCNc1ccc2ncnc3c2c1C(=O)c1ccccc1-3`: the TGI in the assay on MDA-MB-231 breast came out at 4.1 µM; with UACC-257 melanoma, 11.5 µM; in the assay on M14 melanoma it was 1.42 µM; with PC-3 prostate it was 7.21 µM; in the assay on TK-10 renal, 3.92 µM; in the assay with MDA-N, 4.11 µM. In addition, the TGI stood at 6.21 µM in the assay on MDA-MB-435, 15.1 µM in the assay on HS 578T breast, 0.915 µM with SR leukemia and 2.57 µM in the assay with MCF7 breast.

On to `COc1ccc(-c2cc(-c3ccccc3)n(C3OCC(OC(C)=O)C(OC(C)=O)C3OC(C)=O)c(=S)c2C#N)cc1` (stereo unspecified), for which the TGI in the assay on MDA-MB-231 breast, with UACC-257 melanoma, in the assay with M14 melanoma, in the assay with PC-3 prostate, in the assay with TK-10 renal and in the assay on MDA-N was more than 100 µM in each case. Moreover, the TGI in the assay on MDA-MB-435, in the assay with HS 578T breast, with SR leukemia and in the assay with MCF7 breast was more than 100 µM throughout.

As to `CC(C)(N)CO[C@H]1C[C@H]2CC[C@@]1(C)C2(C)C`, the TGI is 36.5 µM in the assay on MDA-MB-231 breast; 34.7 µM with UACC-257 melanoma; 31.4 µM in the assay on M14 melanoma; more than 100 µM in the assay with PC-3 prostate; 40 µM in the assay on TK-10 renal; 30.2 µM with MDA-N. Moreover, the TGI in the assay on MDA-MB-435 amounted to 30.5 µM; in the assay on HS 578T breast, 79 µM; in the assay on SR leukemia, 81.1 µM; in the assay on MCF7 breast, 37.1 µM.

As for `O=C(CCCn1c(=O)c2sc3ccccc3c2n2nnc(-c3ccccc3)c12)NCCc1cnc[nH]1`, the GI50 in the assay with MDA-MB-231 breast is 1.92 µM; with UACC-257 melanoma it was 2.04 µM; in the assay with MDA-MB-435, 1.49 µM; with MCF7 breast, 1.45 µM. Also, the TGI in the assay on MDA-MB-231 breast was found to be 3.61 µM; in the assay with UACC-257 melanoma, 4.58 µM; in the assay with MDA-MB-435 it was 3.06 µM; in the assay on MCF7 breast, 3.08 µM.

Take `Cc1nc2ccccc2c(=O)n1-c1n[nH]c2ccccc12`: the TGI with MDA-MB-231 breast, in the assay with UACC-257 melanoma, in the assay on M14 melanoma, with PC-3 prostate, in the assay on TK-10 renal and with MDA-MB-435 was more than 100 µM throughout. For the same compound, the TGI in the assay on HS 578T breast, with SR leukemia and with MCF7 breast was more than 100 µM in each case.

Regarding `Cc1nc(Cl)c(Cl)c(Cl)n1`, the TGI in the assay with MDA-MB-231 breast is 0.656 µM; with UACC-257 melanoma, 1.62 µM; with M14 melanoma it was 0.48 µM; in the assay with PC-3 prostate it was 0.988 µM; in the assay on TK-10 renal, 3.51 µM; in the assay on MDA-N it was 3.15 µM. The TGI stood at 1.71 µM with MDA-MB-435, 4.49 µM in the assay with HS 578T breast and 1.91 µM with MCF7 breast.

For `CN1CCN(c2ccc(-c3ccc4ncc(C#N)c(Nc5ccc(F)c(Cl)c5)c4c3)cc2)CC1`, the GI50 was 6 µM with MDA-MB-231 breast; 2.08 µM with PC-3 prostate; 0.484 µM with TK-10 renal; 1.89 µM in the assay with MDA-MB-435; 2.55 µM with HS 578T breast; 2.01 µM in the assay on SR leukemia. Moreover, in the assay with MCF7 breast, the GI50 was 3.18 µM. The TGI in the assay on MDA-MB-231 breast stood at 28.5 µM; in the assay with PC-3 prostate, 7.92 µM; in the assay with TK-10 renal, 18.8 µM; in the assay on MDA-MB-435, 3.68 µM; with HS 578T breast, 9.88 µM; with SR leukemia, 6.82 µM. Besides, the TGI in the assay with MCF7 breast came to 14.9 µM.

With `CCn1nc(C)c2c1C(=O)NC(C)C(=O)N2` (stereo unspecified), the TGI with UACC-257 melanoma, with M14 melanoma, with PC-3 prostate, in the assay with TK-10 renal, in the assay on MDA-N and with MDA-MB-435 was more than 100 µM each time. This compound also returned a TGI in the assay with HS 578T breast of more than 100 µM.

On to `COc1cc(-c2n/c(=C\c3c(O)[nH]c4ccc(Cl)cc34)cc3c2=Nc2ccccc2-3)cc(OC)c1OC`, for which the GI50 is 1.47 µM in the assay with MDA-MB-231 breast; 1.43 µM in the assay on M14 melanoma; 1.82 µM in the assay with PC-3 prostate; 1.5 µM in the assay with TK-10 renal; 2.08 µM in the assay with MDA-MB-435; 2.29 µM in the assay on HS 578T breast. Moreover, the results for the GI50 in the assay on SR leukemia and with MCF7 breast were 0.445 µM and 0.316 µM, respectively. The TGI in the assay on MDA-MB-231 breast turned out to be 3.12 µM; with M14 melanoma, 3.02 µM; with PC-3 prostate, 5.92 µM; in the assay on TK-10 renal, 3.2 µM; with MDA-MB-435, 5.15 µM; with HS 578T breast, 8.31 µM. Also, the TGI with SR leukemia amounted to 4.8 µM; in the assay with MCF7 breast it was 1.38 µM.

On to `Nc1ccc2c(c1)C1=NNC(=O)CC1C2` (stereo unspecified), for which the figures for the TGI with UACC-257 melanoma and in the assay on MCF7 breast were more than 100 µM and more than 31.6 µM, respectively.

Turning to `CO[C@H]1[C@@H](O)[C@@H](C)O[C@@H](O[C@H]2CC[C@@]3(C)[C@H](CC[C@@H]4[C@@H]3CC[C@]3(C)[C@@H](C5=CC(=O)OC5)CC[C@]43O)C2)[C@@H]1O`, the TGI was determined as 0.269 µM with MDA-MB-231 breast; 0.0446 µM in the assay with UACC-257 melanoma; 0.0479 µM in the assay on M14 melanoma; 0.0171 µM in the assay on PC-3 prostate; 0.0201 µM in the assay with TK-10 renal; 0.0504 µM in the assay on MDA-N. In addition, the TGI worked out at 0.0693 µM with MDA-MB-435, 0.031 µM with HS 578T breast, 0.483 µM in the assay on SR leukemia and 1.1 µM in the assay with MCF7 breast.

Take `CC1SC(c2ccccc2)N(Nc2c3ccccc3nc3ccccc23)C1=O` (stereo unspecified): the TGI with UACC-257 melanoma, in the assay with M14 melanoma and in the assay on SR leukemia was more than 100 µM each time.
